{"source": "patent US20010008638A1", "about": "“N[…] LEAST ONE […] AT LEAST ONE ANTI-ESTROGEN COMPOUND IN A TIME-RELEASE DOSAGE FORM” (priority 1999, published 2001)", "origin": "cited, not measured here", "details": "fold more potent than testosterone"}
{"smiles": "C[C@]12CCC(=O)C[C@@H]1CC[C@@H]1[C@@H]2CC[C@]2(C)[C@@H](O)CC[C@@H]12", "note": "[DHT, dihydrotestosterone]", "values": [{"measurement": "potency relative to testosterone", "result": "~10", "unit": "times"}]}
